Laboratory results taken from US20240383893A1, “Hydroxamic Acid Compound Having ENPP1 Inhibitory Activity and Use Thereof” (Haihe Biopharma Co., Ltd., priority 2021, published 2024).
Read-outs that look alike come from different tables or passages of the source.

Assays:
[1] = Preliminary pharmacokinetic testing in ICR mice (gavage 5 mg/kg, intravenous 1 mg/kg); format: in vivo; conditions: plasma
Description: 1. 6 healthy ICR mice, male, weighing 30-35 g, were randomly divided into 2 groups with 3 mice in each group. The tested compound was administered by gavage (5 mg/kg) and intravenous injection (1 mg/kg), respectively:
Feeding uniformly 4 hours after administration.

ENPP1 (hENPP1-ECD-His) [2] = molecular target: T1, ENPP1 (hENPP1-ECD-His) (Homo sapiens (Human), UniProt P22413); assay: biochemical
ENPP1 (hENPP1-ECD-His) [3] = molecular target: T1, ENPP1 (hENPP1-ECD-His)
[4] = male, mouse, oral administration (5 mg/kg)
[5] = male, mouse, oral administration (5 mg/kg), read-out: Cmax
[6] = male, mouse, po, 5 mg/kg, read-out: oral bioavailability

T1 sequence (P22413 98-925): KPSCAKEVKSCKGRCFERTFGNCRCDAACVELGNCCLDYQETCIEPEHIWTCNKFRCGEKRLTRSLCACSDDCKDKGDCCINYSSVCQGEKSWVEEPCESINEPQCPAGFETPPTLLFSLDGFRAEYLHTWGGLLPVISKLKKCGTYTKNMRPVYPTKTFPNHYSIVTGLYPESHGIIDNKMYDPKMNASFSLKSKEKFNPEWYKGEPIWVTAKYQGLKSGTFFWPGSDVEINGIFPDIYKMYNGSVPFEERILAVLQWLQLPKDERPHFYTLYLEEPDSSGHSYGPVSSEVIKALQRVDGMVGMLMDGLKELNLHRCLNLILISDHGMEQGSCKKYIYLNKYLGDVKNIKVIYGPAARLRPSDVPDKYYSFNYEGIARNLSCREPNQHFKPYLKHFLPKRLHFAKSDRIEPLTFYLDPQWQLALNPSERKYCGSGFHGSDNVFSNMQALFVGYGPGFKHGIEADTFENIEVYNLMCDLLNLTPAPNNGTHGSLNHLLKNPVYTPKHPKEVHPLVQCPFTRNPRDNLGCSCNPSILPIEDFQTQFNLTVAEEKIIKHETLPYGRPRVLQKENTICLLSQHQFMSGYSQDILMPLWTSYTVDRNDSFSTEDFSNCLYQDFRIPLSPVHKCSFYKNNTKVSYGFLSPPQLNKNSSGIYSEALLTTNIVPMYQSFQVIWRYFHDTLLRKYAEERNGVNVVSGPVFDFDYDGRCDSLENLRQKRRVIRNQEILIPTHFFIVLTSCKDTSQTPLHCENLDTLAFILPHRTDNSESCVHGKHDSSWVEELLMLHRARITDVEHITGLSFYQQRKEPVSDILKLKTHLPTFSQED

AUC(0-t) [1, 4] | half-life [1, 4] | Cmax [1, 5] | IC50 (ENPP1 (hENPP1-ECD-His) [2]) | Structure (SMILES) | also measured
463 ng·h/mL | 2 h | 640 ng/mL |  | COc1ccc2c(Oc3ccc(C4(C(=O)NO)CCOCC4)cc3)ccnc2n1 [Compound 107] | 
619 ng·h/mL |  |  |  | COc1ccc2c(Oc3ccc(CC(=O)NO)cc3)ccnc2n1 [Compound 2, N-hydroxy-2-(4-((7-methoxy-1,8-naphthylidin-4-yl)oxy)phenyl)acetamide] | bioavailability [1, 6]: > 20%; Cmax ([1]; oral administration (5 mg/kg)): 736 ng/mL; T1/2 ([1]; oral administration (5 mg/kg)): 3.26 h
887 ng·h/mL | 1.3 h | 1490 ng/mL |  | COc1ccc2c(Oc3ccc(C(C)(C)C(=O)NO)cc3)ccnc2n1 [Compound 42] | 
 |  |  | 5.3 nM | COc1ccc2c(Oc3ccc(C(F)C(=O)NO)cc3)ccnc2n1 (stereo not shown) [Compound 43] | 
1590 ng·h/mL | 3.9 h | 2370 ng/mL |  | COc1ccc2c(Oc3ccc(C(C)(C)C(=O)NO)c(F)c3)ccnc2n1 [Compound 110] | bioavailability [1, 6]: > 20%
 |  |  | 3.7 nM | CCOC(C(=O)NO)c1ccc(Oc2ccnc3nc(OC)ccc23)cc1 (stereo not shown) [Compound 86] | 

Further lines, the molecule ahead of its results:

Structure (SMILES) | AUC(0-t) [1, 4] | half-life [1, 4] | Cmax [1, 5] | IC50 (ENPP1 (hENPP1-ECD-His) [2]) | also measured
CNc1ccc2c(Oc3ccc(C(C)(C)C(=O)NO)cc3)ccnc2c1 [Compound 102] |  |  |  | 389 nM | 
CC(C)C(C(=O)NO)c1ccc(Nc2ncnc3c2cnn3C)cc1 (stereo not shown) [Compound 199] |  |  |  | 317 nM | 
COc1ccc2c(Oc3cnn(C(C)(C)C(=O)NO)c3)ccnc2n1 [Compound 155] |  |  |  | 28 nM | 
Cn1ncc2c(Nc3ccc(C(C)(C)C(=O)NO)cc3)ncnc21 [Compound 68] | 161 ng·h/mL | 2.44 h | 244 ng/mL |  | bioavailability ([1]; male, mouse, oral administration (5 mg/kg) vs intravenous (1 mg/kg), read-out: F %): 20.2%; IC50 (ENPP1 (hENPP1-ECD-His) [3]): 4.8 nM
COc1cc2nccc(Nc3cnn(C4(C(=O)NO)CCOCC4)c3)c2cn1 [Compound 183] |  |  |  | 6.8 nM | 
